Results: patent US8293495B2, “Blood-brain barrier model” (Wisconsin Alumni Research Foundation, priority 2006, dated 2012)
Structures can show the parent of a compound that is named as a salt.

Columns and labels:
BMEC = BMEC treated with glucocorticoid; cited from earlier work
[1] = cited from earlier work
rat BMEC = rat BMEC co-cultured with astrocytes; cited from earlier work
[2] = Fluorescein flux through BMEC monolayer co-cultured with differentiating NPC (in vitro BBB model); format: in vitro ADME, rat; conditions: rat; through the in vitro model, BMEC with NPC co-culture, 1 μM apical; read-out: permeability (Pe) (converted)
Source text: (§1) Many methods can be used to determine BBB permeability as well as uptake and efflux rates using an in vitro model. As an example, the rates for trans-BBB transport can be used to directly determine a pseudo steady-state permeability value (Pe) which is an estimate of in vivo permeability for a particular pharmaceutical compound, protein, or drug carrier. With the assumption that the concentration in the upper fluid compartment is static, and with a correction for the resistance provided by the membrane itself, the permeability can be readily determined for each test compound. Briefly, the transcytosis rate (Q) can be divided by the concentration of material added to the apical chamber (Ca) and the area of the membrane (Am) to yield a total permeability (Pt) that includes resistances due to the monolayer and the membrane (Pt=Q/[AmCa], or using clearance volume terminology Pt is equal to the slope of the clearance volume versus time line divided by the membrane area). Subsequently, Pe can be calculated by correcting for the resistance supplied by the cell free membrane (Pm) (1/Pe=1/Pt−1/Pm) (Bickel, U. How to measure drug transport across the blood-brain barrier. NeuroRx 2005, 2, 15-26.).
(§2) The permeability was assessed by determining the flux of fluorescein through the BMEC monolayer. Fluorescein sodium salt in DMEM was added to the apical filter compartment to produce a uniform initial concentration of 1 μM. Subsequently, 200 μl were removed from the basolateral compartment after 0, 15, 30, 45, and 60 min. The fluorescence was measured with the FLx800 fluorescence reader (Bio-Tek Instruments) and the rates of fluorescein accumulation in the lower compartment used to determine the permeability as described previously (Perriere et al. 2005).

BMEC monolayer = test: as above; format: in vitro ADME, rat
Source text: as §1, §2

SMILES	TEER (BMEC)	frayed junctions (BMEC)	crossing of the BBB in vivo [1]	fluorescein permeability (rat BMEC)	Papp A→B at 60 min, 1 μM [2]	reduction of monolayer permeability by NPC co-culture (BMEC monolayer; BMEC with differentiating NPC vs BMEC without NPC, 24 h co-culture)	permeability (Pe) (BMEC monolayer; through the in vitro model, BMEC with NPC co-culture, 1 μM apical)
C[C@]12C[C@H](O)[C@H]3[C@@H](CCC4=CC(=O)CC[C@@]43C)[C@@H]1CC[C@@H]2C(=O)CO [corticosterone]	168 Ω×cm^2	21 % frayed	–	–	–	–	–
O=C1OC2(c3ccc(O)cc3Oc3cc(O)ccc32)c2ccccc21 [fluorescein, Fluorescein sodium salt]	–	–	does not appreciably cross the BBB	4.5 ×10⁻⁶ cm/s	5.5 ×10⁻⁶ cm/s	33%	5.5 ×10⁻⁶ cm/s
C[C@]12CCC(=O)C=C1CC[C@@H]1[C@@H]2[C@@H](O)C[C@@]2(C)[C@H]1CC[C@]2(O)C(=O)CO [hydrocortisone]	218 Ω×cm^2	12 % frayed	–	–	–	–	–
